Laboratory results as given in patent US20090239877A1, “NOVEL 1,2,4-TRIAZOLE DERIVATIVES AND PROCESS OF MANUFACTURING THEREOF” (AETERNA ZENTARIS GmbH, priority 2008, published 2009).

What was measured:
human GHS-R 1a [1] = biological target: T1, human GHS-R 1a (Homo sapiens, UniProt Q92847); test: GHS-R 1a receptor-ligand binding assay (membrane preparations from transfected LLC PK-1 cells); set-up: expressed in transfected cells; details: displacement of 125I-His9-ghrelin; plasma membranes of LLC PK-1 cells transiently transfected with human GHS-R 1a; mean of at least two independent experiments in triplicates
T1 sequence (Q92847 whole entry): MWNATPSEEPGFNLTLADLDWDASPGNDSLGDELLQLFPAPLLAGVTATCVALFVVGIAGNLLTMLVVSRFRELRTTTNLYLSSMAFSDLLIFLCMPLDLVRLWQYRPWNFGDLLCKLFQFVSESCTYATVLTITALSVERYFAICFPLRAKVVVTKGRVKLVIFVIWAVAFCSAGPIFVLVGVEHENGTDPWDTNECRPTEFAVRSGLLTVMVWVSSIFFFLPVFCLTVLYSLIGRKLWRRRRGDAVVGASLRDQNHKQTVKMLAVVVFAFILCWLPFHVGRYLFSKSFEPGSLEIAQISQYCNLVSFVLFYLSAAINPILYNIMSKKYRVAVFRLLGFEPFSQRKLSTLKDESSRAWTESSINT
Method: II) GHS-R 1a Receptor-Ligand Binding Assay (Membrane Preparations from Transfected LLC PK-1 Cells)
The GHS-R 1a receptor binding/affinity studies were performed according to Guerlavais et al. (J. Med. Chem. 2003, 46: 1191-1203).
Isolated plasma membranes from LLC PK-1 cells, a renal epithelial cell line originally derived from porcine kidneys (ECACC No. 86121112) (10 μg of protein), that were transiently transfected with human GHS-R 1a cDNA (Guerlavais et al., J. Med. Chem. 2003, 46: 1191-1203), were incubated in homogenization buffer HB [50 mM Tris (pH 7.3), 5 mM MgCl2, 2.5 mM EDTA, and 30 μg/mL bacitracin (Sigma)] for 60 min at 25° C. (steady-state conditions) with […] ^125I-His^9-ghrelin (Amersham) in the presence or absence of competing compounds (compounds of the invention).
Nonspecific binding was defined using an excess (10^−6 M) of ghrelin. The binding reaction was stopped by addition of 4 mL of ice-cold HB followed by rapid filtration over Whatman GP/C filters presoaked with 0.5% polyethyleneimine to prevent excessive binding of radioligand to the filters. Filters were rinsed three times with 3 mL of icecold wash buffer [50 mM Tris (pH 7.3), 10 mM MgCl2, 2.5 mM EDTA, and 0.015% (w/v) X-100 Triton], and the radioactivity bound to membranes was measured in a gammacounter (Kontron Analytical Gamma Matic, Automatic gamma counting system).
The concentration of test compounds required to inhibit radiolabelled ghrelin binding by 50% (IC50) was determined by fitting competitive binding curves using non-linear regression (PRISM 3.0, Graph Pad San Diego, USA).
In the following table 2 results obtained for selected compounds of the invention are presented in comparison to an example of the prior art. IC50 values given are the mean of at least two independent experiments performed in triplicates.

human GHS-R 1a [2] = biological target: T1, human GHS-R 1a; test: In vitro intracellular calcium release assay using human GHS-R 1a transfected CHO cells; type: cell-based; set-up: expressed in transfected cells; host or cells: CHO-K1 Chinese hamster ovary cells (ATCC No. CCL-61), transient transfection by electroporation; details: for EC50: agonists, dose-response curve of intracellular calcium release; for activation at 1 µM: intracellular calcium release, compound at 10^-6 M, relative to basal level (0%) and 1 μM ghrelin (100%)
Method: The ability to properly activate the receptors is assessed for any compound of the invention by comparing the degree of activation (increase of intracellular calcium) of GHS-R 1a by the compound to be tested (at 10^−6 M concentration) to the degree of activation (increase of intracellular calcium) of GHS-R 1a by 10^−6 M ghrelin (100%) and to the basal level (0%). Such assessment can be readily performed by the skilled artisan due to his expert knowledge. The output is a percentage value for each compound to be tested. […]
III) In Vitro Intracellular Calcium Release Assay Using Human GHS-R 1a Transfected CHO Cells
The potential of the compounds of the invention to modulate GHS receptor activity was assessed by an in vitro intracellular Calcium release assay employing CHO cells that were transfected with human GHS-R 1a.
Release of intracellular calcium or inhibition thereof was measured using the fluorescent calcium indicator assay (FLIPR) and Fluo-4 AM.
CHO cells (CHO-KI Chinese Hamster Ovary cell line, ATCC No. CCL-61) were transiently transfected with human GHS-R 1a cDNA by electroporation and plated into 96-well black bottom plates (Corning 3603) (80,000 cells/well). Transient transfections were performed using the Easyject Optima Electroporator (Equibio), according to the manufacturer's instructions.
Transfected cells were grown in Dulbecco's modified Eagle's medium without phenol red, supplemented with 10% (v/v) non-essential amino acids, […] glutamine and streptomycin-penicillin (250 μg/ml-250 u/ml) (all purchased from Cambrex) at 37° C., 5% CO2 in a humidified atmosphere for 24 hours.
After incubation, transfected cells were washed with 150 μl Buffer A [Hanks' balanced salt solution (Sigma H-6648), 0.5% (v/v) BSA (Sigma A-7906), 20 mM CaCl2, 2.5 mM probenecid (pH 7.4, dissolved in 1 M NaOH) (Sigma P-8761)] and were then loaded with fluorescent calcium indicator Fluo-4 AM (10^−6 M) (Interchim UP72972) prepared in Buffer A, additionally containing 0.06% pluronic acid (Molecular probes P-6867) (a […] detergent which facilitates Fluo-4AM ester loading). (Loading: 100 μl per well of Buffer A containing 120 μl/ml Pluronic Acid and 1 μM Fluo-4AM was added to the cells).
After loading with Fluo-4 AM, transfected cells were incubated for 1 hour in the dark at 37° C.
Compounds to be tested were dissolved in Buffer A in triplicates at a concentration of 10^−6 M and distributed into another 96-well plate (Fisher Labosi A1210500).
Following incubation, excess Fluo-4AM was removed, 100 μl of Buffer A was added to each well at room temperature and immediately removed by aspiration. This was then repeated, before adding 50 μl Buffer A to each well.
Transfected cells were further incubated room temperature for 30 min to allow complete de-esterification of intracellular Fluo-4AM esters.
Subsequently, both plates, the black-bottom plate containing transfected cells and the microtiter plate containing the compounds to be tested, were then placed into a temperature-regulated (25° C.) FlexStation machine (benchtop scanning fluorometer Flex Station II, Molecular Devices, Sunnyvale, Calif., USA) for fluorescence output measurements.
Basal fluorescence output from the transfected cells was measured for 15 sec and then 50 μl of the compounds to be tested were automatically distributed into the wells containing the transfected cells. The fluorescence output was then recorded for a further 45 sec.
Excitation and emission wavelengths were 485 nm and 525 nm, respectively. Basal fluorescence intensity of Fluo-4AM-loaded transfected cells without compounds to be tested varied between 800-1200 arbitrary units, whereas maximal fluorescence output of dye-loaded transfected cells upon incubation with the compounds to be tested varied between 5000-7000 arbitrary units and was equivalent to that achieved by stimulation of dye-loaded transfected cells with 10^−6 M ghrelin. […]

| SMILES | IC50 (human GHS-R 1a [1]) [nM] | EC50 (human GHS-R 1a [2]) [nM] | activation at 1 µM (human GHS-R 1a [2]) [%] |
| --- | --- | --- | --- |
| O=C(N[C@H](Cc1c[nH]c2ccccc12)c1nnc(CCc2c[nH]c3ccccc23)n1Cc1cccc2ccccc12)C1CCOCC1 [Compound 20, N-((R)-1-(5-(2-(1H-indol-3-yl)ethyl)-4-((naphthalen-1-yl)methyl)-4H-1,2,4-triazol-3-yl)-2-(1H-indol-3-yl)ethyl)-tetrahydro-2H-pyran-4-carboxamide] | 180 | 0.6 | 80 |
| O=C(N[C@H](Cc1c[nH]c2ccccc12)c1nnc(CCc2c[nH]c3ccccc23)n1Cc1cccc2ccccc12)c1ccccn1 [Compound 18, N-((R)-1-(5-(2-(1H-indol-3-yl)ethyl)-4-((naphthalen-1-yl)methyl)-4H-1,2,4-triazol-3-yl)-2-(1H-indol-3-yl)ethyl)picolinamide] | 5.3 | – | 1 |
| O=C(N[C@H](Cc1c[nH]c2ccccc12)c1nnc(CCc2c[nH]c3ccccc23)n1Cc1cccc2ccccc12)[C@@H]1CCCN1 [Compound 31, (2S)-N-((R)-1-(5-(2-(1H-indol-3-yl)ethyl)-4-((naphthalen-1-yl)methyl)-4H-1,2,4-triazol-3-yl)-2-(1H-indol-3-yl)ethyl)pyrrolidine-2-carboxamide] | 505 | 2.7 | 100 |
| O=C(N[C@H](Cc1c[nH]c2ccccc12)c1nnc(CCc2c[nH]c3ccccc23)n1Cc1cccc2ccccc12)c1cnccn1 [Compound 32, N-((R)-1-(5-(2-(1H-indol-3-yl)ethyl)-4-((naphthalen-1-yl)methyl)-4H-1,2,4-triazol-3-yl)-2-(1H-indol-3-yl)ethyl)pyrazine-2-carboxamide] | 122 | – | 0 |
| O=C(N[C@H](Cc1c[nH]c2ccccc12)c1nnc(Cc2ccccc2)n1Cc1ccc(Cl)c(Cl)c1)[C@@H]1CCCN1 [Compound 35, (2S)-N-((R)-1-(4-(3,4-dichlorobenzyl)-5-benzyl-4H-1,2,4-triazol-3-yl)-2-(1H-indol-3-yl)ethyl)pyrrolidine-2-carboxamide] | – | 17 | 60 |
| O=C(Cc1ccccn1)N[C@H](Cc1c[nH]c2ccccc12)c1nnc(CCc2c[nH]c3ccccc23)n1Cc1cccc2ccccc12 [Compound 30, N-((R)-1-(5-(2-(1H-indol-3-yl)ethyl)-4-((naphthalen-1-yl)methyl)-4H-1,2,4-triazol-3-yl)-2-(1H-indol-3-yl)ethyl)-2-(pyridin-2-yl)acetamide] | 125 | – | 0 |
| NCCCC(=O)N[C@H](Cc1c[nH]c2ccccc12)c1nnc(CCCc2c[nH]c3ccccc23)n1Cc1cccc2ccccc12 [Compound 69, N-((R)-1-(5-(3-(1H-indol-3-yl)propyl)-4-((naphthalen-1-yl)methyl)-4H-1,2,4-triazol-3-yl)-2-(1H-indol-3-yl)ethyl)-4-aminobutanamide] | 126 | – | – |

Other lines, results leading:

| IC50 (human GHS-R 1a [1]) [nM] | EC50 (human GHS-R 1a [2]) [nM] | activation at 1 µM (human GHS-R 1a [2]) [%] | SMILES |
| --- | --- | --- | --- |
| 143 | 17 | 40 | COc1ccc(Cn2c(CCc3ccccc3)nnc2[C@@H](Cc2c[nH]c3ccccc23)NC(=O)[C@H]2CNCCN2)cc1 [Compound 2, (2R)-N-((R)-1-(4-(4-methoxybenzyl)-5-phenethyl-4H-1,2,4-triazol-3-yl)-2-(1H-indol-3-yl)ethyl)piperazine-2-carboxamide] |
| 204 | – | 4 | COc1ccc(Cn2c(CCc3ccccc3)nnc2[C@@H](Cc2c[nH]c3ccccc23)NC(=O)c2cccc(CN)c2)c(OC)c1 [Compound 6, N-((R)-1-(4-(2,4-dimethoxybenzyl)-5-phenethyl-4H-1,2,4-triazol-3-yl)-2-(1H-indol-3-yl)ethyl)-3-(amino-methyl)benzamide] |
| 5 | 1.5 | 120 | O=C(N[C@H](Cc1c[nH]c2ccccc12)c1nnc(Cc2ccccc2)n1Cc1ccc(Cl)c(Cl)c1)C1CCNCC1 [Compound 33, N-((R)-1-(4-(3,4-dichlorobenzyl)-5-benzyl-4H-1,2,4-triazol-3-yl)-2-(1H-indol-3-yl)ethyl)piperidine-4-carboxamide] |
| 380 | – | 47 | COc1cccc(Cn2c(CCCc3ccccc3)nnc2[C@@H](Cc2c[nH]c3ccccc23)NC(=O)C(C)(C)N)c1 [Compound 1, N-((R)-1-(4-(3-methoxybenzyl)-5-(3-phenylpropyl)-4H-1,2,4-triazol-3-yl)-2-(1H-indol-3-yl)ethyl)-2-amino-2-methylpropanamide] |
| 12 | 3.9 | 100 | NC1(C(=O)N[C@H](Cc2c[nH]c3ccccc23)c2nnc(CCc3c[nH]c4ccccc34)n2Cc2cccc3ccccc23)CCNCC1 [Compound 48, N-((R)-1-(5-(2-(1H-indol-3-yl)ethyl)-4-((naphthalen-1-yl)methyl)-4H-1,2,4-triazol-3-yl)-2-(1H-indol-3-yl)ethyl)-4-aminopiperidine-4-carboxamide] |
| 17 | 2 | 120 | O=C(N[C@H](Cc1c[nH]c2ccccc12)c1nnc(CCc2ccccc2)n1Cc1cccc2ccccc12)C1CCNCC1 [Compound 15, N-((R)-2-(1H-indol-3-yl)-1-(4-((naphthalen-1-yl)methyl)-5-phenethyl-4H-1,2,4-triazol-3-yl)ethyl)piperidine-4-carboxamide] |
| 1.3 | 2 | 100 | COc1ccc(Cn2c(CCc3ccccc3)nnc2[C@@H](Cc2c[nH]c3ccccc23)NC(=O)C2(N)CCNCC2)c(OC)c1 [Compound 10, N-((R)-1-(4-(2,4-dimethoxybenzyl)-5-phenethyl-4H-1,2,4-triazol-3-yl)-2-(1H-indol-3-yl)ethyl)-4-aminopiperidine-4-carboxamide] |
| 40 | 1.6 | 150 | O=C(N[C@H](Cc1c[nH]c2ccccc12)c1nnc(CCCc2c[nH]c3ccccc23)n1Cc1ccccc1)C1CCNCC1 [Compound 22, N-((R)-1-(5-(3-(1H-indol-3-yl)propyl)-4-benzyl-4H-1,2,4-triazol-3-yl)-2-(1H-indol-3-yl)ethyl)piperidine-4-carboxamide] |
